# Laboratory results published in patent US20240019450A1, “FLUORESCENT SENSORS” (THE UNIVERSITY OF SYDNEY, priority 2020, published 2024).
# Test: Fluorescence spectroscopy of the sensors (excitation and emission)
# Type: physicochemical
# Description: Fluorescence spectroscopy was performed on a bench top Perkin-Elmer Enspire Multimode Plate Reader. […] 5 replicates of each sensor-metal or sensor-complex solution were used. […] Fluorescence responses to analytes were determined using integrated emission intensity, and for each sensor a control well containing no analyte was included to normalise the response for analysis.
# The sensors were tested using the procedure described in Example 4, and the obtained data was analysed using LDA. […] Sensors S1-S9 were used in subsequent experiments.
row,excitation wavelength (maximum excitation wavelength of the sensor) [nm],SMILES
1,280,O=[N+]([O-])c1ccc2c(/N=N/c3ccc4ccccc4c3O)c(O)cc(S(=O)(=O)[O-])c2c1.[Na+] [S8]
2,445,CCN(CC)c1ccc2c(c1)Oc1cc(N(CC)CC)ccc1C21c2ccccc2C(=O)N1OCc1cn(Cc2ccccc2)nn1 [S7]
3,480,O=C1c2ccccc2C2(c3ccc(O)cc3Oc3cc(O)ccc32)N1NC(=S)S [S1]
4,380,Cc1cc(=O)oc2c(CN(CC(=O)O)CC(=O)O)c(O)ccc12 [S5]

row,SMILES,excitation wavelength (maximum excitation wavelength of the sensor) [nm]
1,O=S(=O)([O-])c1cc(O)c(N=Nc2c(O)ccc3ccccc23)c2ccccc12.[Na+] [S9],280

# Test: not given
row,melting point [°C],SMILES
1,220,"S=C(S)n1ncc2ccccc21 [formula X, 1H-indazole-1-carbodithioic acid]"
2,100,"S=C(S)C1=C(NCc2ccccc2)CCC1 [formula XIV, 2-(benzylamino)cyclopent-1-enecarbodithioic acid]"
